Results: PMC9937538 (Journal of Medicinal Chemistry, 2022)
Structures can show the parent of a compound that is named as a salt. Where two headings read alike, the source gives them in different places.

How the values were obtained:
hCA IX = hCA IX (Homo sapiens, UniProt Q16790); assay: CA inhibition, stopped-flow CO2 hydration assay
Procedure: (§1) An applied photophysics stopped-flow instrument was used for assaying the CA-catalyzed CO2 hydration activity.[37]
(§2) The uncatalyzed rates were determined in the same manner and subtracted from the total observed rates. Stock solutions of the inhibitor (0.1 mM) were prepared in distilled–deionized water, and dilutions up to 0.01 nM were done thereafter with the assay buffer. Inhibitor and enzyme solutions were preincubated together for 15 min at room temperature prior to the assay to allow for the formation of the E–I complex. The inhibition constants were obtained by nonlinear least-squares methods using PRISM 3 and the Cheng–Prusoff equation, as reported earlier, and represent the mean from at least three different determinations. All CA isoforms were recombinant proteins obtained in-house, as reported earlier.[44]−[46]

hCA I = hCA I (Homo sapiens, UniProt P00915); assay: CA inhibition, stopped-flow CO2 hydration assay
Procedure: as §1, §2

hCA IV = hCA IV (Homo sapiens, UniProt P22748); assay: CA inhibition, stopped-flow CO2 hydration assay
Chain of hCA IV (P22748 19-312): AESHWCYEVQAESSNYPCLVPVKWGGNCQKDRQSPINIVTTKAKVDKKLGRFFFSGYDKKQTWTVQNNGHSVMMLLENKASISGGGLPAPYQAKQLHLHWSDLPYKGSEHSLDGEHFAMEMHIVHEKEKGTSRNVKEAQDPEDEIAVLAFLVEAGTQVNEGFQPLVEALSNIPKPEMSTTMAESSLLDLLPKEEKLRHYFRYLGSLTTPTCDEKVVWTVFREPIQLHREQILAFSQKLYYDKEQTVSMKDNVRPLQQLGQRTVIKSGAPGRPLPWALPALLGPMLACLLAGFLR
Procedure: as §1, §2

hCA VA = hCA VA (Homo sapiens, UniProt P35218); assay: CA inhibition, stopped-flow CO2 hydration assay
Chain of hCA VA (P35218 39-305): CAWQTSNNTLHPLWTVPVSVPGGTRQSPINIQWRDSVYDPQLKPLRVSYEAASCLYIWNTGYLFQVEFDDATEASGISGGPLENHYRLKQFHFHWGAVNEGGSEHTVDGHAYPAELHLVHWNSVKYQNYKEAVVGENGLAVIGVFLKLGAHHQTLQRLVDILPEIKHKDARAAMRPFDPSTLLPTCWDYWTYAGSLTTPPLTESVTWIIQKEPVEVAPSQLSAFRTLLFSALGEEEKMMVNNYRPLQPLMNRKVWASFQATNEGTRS
Procedure: as §1, §2

hCA II = hCA II (Homo sapiens, UniProt P00918); assay: CA inhibition, stopped-flow CO2 hydration assay
Procedure: as §1, §2

hCA VB = hCA VB (Homo sapiens, UniProt Q9Y2D0); assay: CA inhibition, stopped-flow CO2 hydration assay
Chain of hCA VB (Q9Y2D0 34-317): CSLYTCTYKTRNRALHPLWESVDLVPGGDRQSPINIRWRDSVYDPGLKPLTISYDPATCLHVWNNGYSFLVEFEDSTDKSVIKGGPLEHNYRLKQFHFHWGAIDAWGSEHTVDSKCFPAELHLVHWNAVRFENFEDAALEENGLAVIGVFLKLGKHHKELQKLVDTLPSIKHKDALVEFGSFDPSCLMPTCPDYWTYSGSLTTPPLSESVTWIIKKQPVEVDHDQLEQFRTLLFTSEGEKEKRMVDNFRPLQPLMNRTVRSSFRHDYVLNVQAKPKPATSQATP
Procedure: as §1, §2

[1] = target: T1, purified recombinant human DPP IV (Homo sapiens, UniProt P27487); assay: In vitro DPP IV activity assay (fluorogenic Gly-Pro-AMC substrate); type: biochemical
T1 construct: purchased Cayman Chemicals (Michigan)
T1 sequence (P27487 whole entry): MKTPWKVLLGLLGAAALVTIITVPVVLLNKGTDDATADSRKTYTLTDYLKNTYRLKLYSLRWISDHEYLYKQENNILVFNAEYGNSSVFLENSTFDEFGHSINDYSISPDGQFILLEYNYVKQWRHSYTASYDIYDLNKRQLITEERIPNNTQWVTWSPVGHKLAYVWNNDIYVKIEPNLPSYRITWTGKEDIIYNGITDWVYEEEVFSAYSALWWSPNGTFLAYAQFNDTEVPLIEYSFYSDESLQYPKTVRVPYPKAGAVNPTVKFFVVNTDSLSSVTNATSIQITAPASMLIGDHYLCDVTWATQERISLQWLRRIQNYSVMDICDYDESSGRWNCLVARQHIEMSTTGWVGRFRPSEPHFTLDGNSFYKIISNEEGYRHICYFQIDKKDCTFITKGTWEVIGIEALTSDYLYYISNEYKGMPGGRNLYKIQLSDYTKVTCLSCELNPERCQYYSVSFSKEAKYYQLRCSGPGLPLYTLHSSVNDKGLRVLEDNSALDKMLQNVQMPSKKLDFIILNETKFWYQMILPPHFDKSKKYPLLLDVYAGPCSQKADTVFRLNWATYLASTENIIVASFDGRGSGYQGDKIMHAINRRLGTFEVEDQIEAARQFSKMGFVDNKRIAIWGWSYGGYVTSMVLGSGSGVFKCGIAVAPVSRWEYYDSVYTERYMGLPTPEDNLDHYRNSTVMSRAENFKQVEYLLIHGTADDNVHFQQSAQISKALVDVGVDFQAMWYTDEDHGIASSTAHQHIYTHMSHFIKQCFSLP
Procedure: The DPP IV inhibition activities of the entire sets of compounds were carried out on purified recombinant human DPP IV using conditions previously optimized.[35]
Four independent in vitro experiments were carried out, and each of those was performed in triplicate in a white half-volume 96-well solid plate. […] Afterward, the samples were mixed and 50 μL was transferred to each plate well. Each reaction was started by adding 50 μL of the substrate solution (200 μM H-Gly-Pro-7-amido-4-methylcoumarin (AMC)) to each well and incubated at 37 °C for 30 min. […] The DPP IV enzyme and the substrate solution were provided by Cayman Chemicals (Michigan).

human cloned α1a-AR = target: T2, human cloned α1a-AR (Homo sapiens, UniProt P35348); assay: α1a-AR binding assay ([3H]prazosin displacement); conditions: human cloned α1a-AR expressed in HEK293 cells
T2 construct: expressed in transfected cells
T2 sequence (P35348 1-466): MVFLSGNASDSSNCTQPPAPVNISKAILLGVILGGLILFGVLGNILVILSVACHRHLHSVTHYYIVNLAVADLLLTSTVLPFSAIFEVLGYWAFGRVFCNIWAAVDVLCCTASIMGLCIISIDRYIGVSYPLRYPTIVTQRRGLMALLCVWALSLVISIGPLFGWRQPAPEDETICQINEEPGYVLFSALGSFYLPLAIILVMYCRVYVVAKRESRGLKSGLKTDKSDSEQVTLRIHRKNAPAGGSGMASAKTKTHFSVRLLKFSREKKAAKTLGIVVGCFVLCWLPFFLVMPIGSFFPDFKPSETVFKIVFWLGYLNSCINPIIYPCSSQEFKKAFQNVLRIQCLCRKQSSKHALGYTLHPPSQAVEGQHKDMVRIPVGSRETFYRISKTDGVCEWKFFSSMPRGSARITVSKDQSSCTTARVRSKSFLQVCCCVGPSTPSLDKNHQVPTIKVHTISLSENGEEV
Source text: Since WB-4101 is a potent α1 antagonist, this adrenoreceptor subtype was chosen to assess the loss of adrenergic affinity.
Figure S3. […] Curves […]
from single experiments were fitted using the standard four parameter logistic equation and represent the mean ± S.E.M. of 4 observations, 2 experi-ments. X-axis: Log concentrations of competitive test compounds. Y-axis: normalized [3H]prazosin Bound/Total bound.
In the table are reported the affinity constants, expressed as pKi (-log Ki), of compounds 11, 12 and WB-4101 for human cloned α1a-AR expressed in HEK293 cells. The values represent the arithmetic mean ± S.E.M. of 4 observations, 2 experiments.
ND, not determinable; NA, not available.
Note: data generated from binding assays were analyzed using Prism 5.02 (GraphPad Software Inc., San Diego, CA) and were fitted to a parametric function to derive best estimates of the IC50 and slope factor (nH); IC50 values were then converted to binding constant Ki according to Cheng-Prus- […]
The details on the α1a-AR binding assay have been described before2.
(1 picture or pasted object on this page, not shown here)

[2] = read-out: Ki CA IX, stopped-flow technique, mean from three assays
[3] = read-out: Ki CA I, stopped-flow technique, mean from three assays
[4] = read-out: Ki CA IV, stopped-flow technique, mean from three assays
[5] = read-out: Ki CA VA, stopped-flow technique, mean from three assays
[6] = read-out: Ki CA II, stopped-flow technique, mean from three assays
[7] = read-out: Ki CA VB, stopped-flow technique, mean from three assays
[8] = mean from three different assays

Chain of hCA I (P00915 whole entry): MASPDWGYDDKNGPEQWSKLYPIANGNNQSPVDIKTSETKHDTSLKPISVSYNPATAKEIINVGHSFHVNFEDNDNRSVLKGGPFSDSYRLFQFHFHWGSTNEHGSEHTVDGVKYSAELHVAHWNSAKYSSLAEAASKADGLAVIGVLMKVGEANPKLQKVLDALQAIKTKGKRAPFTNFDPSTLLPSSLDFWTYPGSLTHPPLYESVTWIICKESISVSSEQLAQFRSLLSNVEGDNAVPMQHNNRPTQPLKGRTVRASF

NS(=O)(=O)c1ccc(OCCNCC2COc3ccccc3O2)cc1 (stereo not shown) [Compound 1, [((2-(4-Sulfonamidephenoxy)ethyl)amino)-methyl]-1,4-benzodioxane Hydrochloride]
Ki (hCA IX; [2]): 0.0203 µM

CNS(=O)(=O)c1ccc(OCCNCC2COc3ccccc3O2)cc1 (stereo not shown) [Compound 2, [((2-(4-Methylsulfonamidephenoxy)ethyl)amino)-methyl]-1,4-benzodioxane Hydrochloride]
Ki (hCA IX; [2]): > 10 µM | Ki (hCA I; [3]): > 10 µM | Ki (hCA IV; [4]): > 10 µM | Ki (hCA VA; [5]): > 10 µM | Ki (hCA II; [6]): > 10 µM | Ki (hCA VB; [7]): > 10 µM

CCNS(=O)(=O)c1ccc(OCCNCC2COc3ccccc3O2)cc1 (stereo not shown) [Compound 3, [((2-(4-Ethylsulfonamidephenoxy)ethyl)amino)-methyl]-1,4-benzodioxane Hydrochloride]
Ki (hCA IX; [2]): > 10 µM | Ki (hCA I; [3]): > 10 µM | Ki (hCA IV; [4]): > 10 µM | Ki (hCA VA; [5]): > 10 µM | Ki (hCA II; [6]): > 10 µM | Ki (hCA VB; [7]): > 10 µM

CN(C)S(=O)(=O)c1ccc(OCCNCC2COc3ccccc3O2)cc1 (stereo not shown) [Compound 4, [((2-(4-Dimethylsulfonamidephenoxy)ethyl)amino)-methyl]-1,4-benzodioxane Hydrochloride]
Ki (hCA IX; [2]): > 10 µM | Ki (hCA I; [3]): > 10 µM | Ki (hCA IV; [4]): > 10 µM | Ki (hCA VA; [5]): > 10 µM | Ki (hCA II; [6]): > 10 µM | Ki (hCA VB; [7]): > 10 µM

CC(C)NS(=O)(=O)c1ccc(OCCNCC2COc3ccccc3O2)cc1 (stereo not shown) [Compound 5, [((2-(4-Isopropylsulfonamidephenoxy)ethyl)amino)-methyl]-1,4-benzodioxane Hydrochloride]
Ki (hCA IX): > 10 µM | Ki (hCA I): > 10 µM | Ki (hCA IV): > 10 µM | Ki (hCA VA): > 10 µM | Ki (hCA II): > 10 µM | Ki (hCA VB): > 10 µM

CS(=O)(=O)Nc1ccc(OCCNCC2COc3ccccc3O2)cc1 (stereo not shown) [Compound 6, [((2-(4-Methylsulfonylamidephenoxy)ethyl)amino)-methyl]-1,4-benzodioxane Hydrochloride]
Ki (hCA IX; [2]): > 10 µM | Ki (hCA I; [3]): > 10 µM | Ki (hCA IV; [4]): > 10 µM | Ki (hCA VA; [5]): > 10 µM | Ki (hCA II; [6]): > 10 µM | Ki (hCA VB; [7]): > 10 µM

CCS(=O)(=O)Nc1ccc(OCCNCC2COc3ccccc3O2)cc1 (stereo not shown) [Compound 7, [((2-(4-Ethylsulfonylamidephenoxy)ethyl)amino)-methyl]-1,4-benzodioxane Hydrochloride]
Ki (hCA IX; [2]): > 10 µM | Ki (hCA I; [3]): > 10 µM | Ki (hCA IV; [4]): > 10 µM | Ki (hCA VA; [5]): > 10 µM | Ki (hCA II; [6]): > 10 µM | Ki (hCA VB; [7]): > 10 µM

CC(C)CS(=O)(=O)Nc1ccc(OCCNCC2COc3ccccc3O2)cc1 (stereo not shown) [Compound 8, [((2-(4-Isobutylsulfanilaminophenoxy)ethyl)amino)-methyl]-1,4-benzodioxane Hydrochloride]
Ki (hCA IX; [2]): > 10 µM | Ki (hCA I; [3]): > 10 µM | Ki (hCA IV; [4]): > 10 µM | Ki (hCA VA; [5]): > 10 µM | Ki (hCA II; [6]): > 10 µM | Ki (hCA VB; [7]): > 10 µM

[N-]=[N+]=NC(CCOc1ccc(S(N)(=O)=O)cc1)C1COc2ccccc2O1 (stereo not shown) [Compound 9, 4-(3-Azido-3-(1,4-benzodioxan)propoxy)benzenesulfonamide]
Ki (hCA IX; [2]): 0.328 µM | IC50 [1, 8]: 669 ± 23.5 µM

COc1cc(S(N)(=O)=O)ccc1OCCC(N=[N+]=[N-])C1COc2ccccc2O1 (stereo not shown) [Compound 10, 3-Methoxy-4-(3-azido-3-(1,4-benzodioxan)propoxy)benzenesulfonamide]
Ki (hCA IX; [2]): 0.111 µM

COc1cc(S(N)(=O)=O)cc(OC)c1OCCC(N=[N+]=[N-])C1COc2ccccc2O1 (stereo not shown) [Compound 11, 3,5-Dimethoxy-4-(3-azido-3-(1,4-benzodioxan)propoxy)benzenesulfonamide]
Ki (hCA IX; [2]): 0.745 µM | IC50 [1, 8]: 0.0332 ± 0.0058 µM | binding affinity toward α1a-AR (in words) (human cloned α1a-AR): absence of the binding affinity | pKi α1a-AR (human cloned α1a-AR; mean ± S.E.M.): >4

COc1cc(S(N)(=O)=O)ccc1OCCC(N)C1COc2ccccc2O1 (stereo not shown) [Compound 13, 3-Methoxy-4-(3-amino-3-(1,4-benzodioxan)propoxy)benzenesulfonamide]
Ki (hCA IX; [2]): 0.0311 µM | IC50 [1, 8]: 57.4 ± 3.2 µM

COc1cc(S(N)(=O)=O)cc(OC)c1OCCC(N)C1COc2ccccc2O1 (stereo not shown) [Compound 14, 3,5-Dimethoxy-4-(3-amino-3-(1,4-benzodioxan)propoxy)benzenesulfonamide]
Ki (hCA IX; [2]): 0.955 µM | IC50 [1, 8]: 0.0283 ± 0.0035 µM

N[C@@H](CC(=O)N1CCn2c(nnc2C(F)(F)F)C1)Cc1cc(F)c(F)cc1F [Sitagliptin, reference compound]
Ki (hCA IX; [2]): > 10 µM | Ki (hCA I; [3]): > 10 µM | Ki (hCA IV; [4]): > 10 µM | Ki (hCA VA; [5]): > 10 µM | Ki (hCA II; [6]): > 10 µM | Ki (hCA VB; [7]): > 10 µM

COc1cccc(OC)c1OCCNCC1COc2ccccc2O1 (stereo not shown) [WB-4101, 2-[(2,6-dimethoxyphenoxyethyl)aminomethyl]-1,4-benzodioxane, reference compound]
Ki (hCA IX; [2]): > 10 µM | Ki (hCA I; [3]): > 10 µM | Ki (hCA IV; [4]): > 10 µM | IC50 [1]: > 700 µM | Ki (hCA VA; [5]): > 10 µM | Ki (hCA II; [6]): > 10 µM | Ki (hCA VB; [7]): > 10 µM
